# How the values were obtained:
# [1] = system: human B cell lymphoma DOHH-2 cells; experiment: Proliferation of DOHH-2 cells in vitro (MTT); type: cell-based; conditions: single compound, 72 hours
# Protocol: Cell line: human B cell lymphoma DOHH-2 cells (purchased from DSMZ), cultured in vitro in RPMI 1640 medium containing 10% fetal bovine serum (FBS).
# (§1) Each of the test compounds was all formulated with DMSO into a 10 mM stock solution, which was formulated into the desired concentration with serum-free medium when used.
# (§2) A certain number of cells in logarithmic growth phase was inoculated in a 96-well culture plate. After 24 hours, the cells were added with the test compounds in different concentrations (1-100000 nM), and incubated for 72 hours. Each well was added with the MTT working solution. After 4 hours, the cells were lysed with the triple solution, and the OD value was measured at a wavelength of 570 nm by a microplate reader. […]
# The half effective concentration IC50 was calculated using the non-linear regression method according to the inhibition, rate of each concentration.
# (§3) In the combined administration, the concentration ratio of compound A to compound B was 1:10. The combination index (CI) was calculated with Calcu-Syn program using the median effect method to evaluate the relationship between the two compounds during the combined administration (CI<1 refers to synergistic effect, CI=1 refers to additive effect, CI>1 refers to antagonistic effect).
# [2] = system: human B cell lymphoma SU-DHL-4 cells; experiment: Proliferation of SU-DHL-4 cells in vitro (MTT); type: cell-based; conditions: single compound, 72 hours
# Protocol: (§4) Cell line: human B cell lymphoma SU-DHL-4 and SU-DHL-6 cells (purchased from ATCC), cultured in vitro in RPMI 1640 medium containing 10% fetal bovine serum (FBS).
# as §1
# as §2, with “(1-40000” for “(1-100000”, “solution (10% SDS, 5% isobutanol, 0.012 mol/L HCl) at 37° C. overnight,” for “solution,”
# (§5) The half effective concentration IC50 was calculated using the non-linear regression method according to the inhibition rate of each concentration.
# as §3, with “1:2 (for SU-DHL-4) and 1:4 (for SU-DHL-6).” for “1:10.”
# [3] = system: human B cell lymphoma SU-DHL-6 cells; experiment: Proliferation of SU-DHL-6 cells in vitro (MTT); type: cell-based; conditions: single compound, 72 hours
# Protocol: as §4, §1
# as §2, with “(1-40000” for “(1-100000”, “solution (10% SDS, 5% isobutanol, 0.012 mol/L HCl) at 37° C. overnight,” for “solution,”
# as §5
# as §3, with “1:2 (for SU-DHL-4) and 1:4 (for SU-DHL-6).” for “1:10.”
# [4] = system: human follicular lymphoma DOHH-2 cells subcutaneous transplantation tumor; experiment: Subcutaneous transplantation tumor in nude mice inoculated with DOHH-2 cells; type: in vivo, BALB/cA-nude nude mice; conditions: DOHH-2 xenograft, 50 mg/kg each, PO, BID, D 0-20; for Mean tumor volume D 0: baseline at first administration
# Excerpt: Test animals: BALB/cA-nude nude mice, 5-6 weeks old, female, purchased from Shanghai Lingchang Biotechnology Co., Ltd., with laboratory animals use license No.: SCXK (Shanghai) 2013-0018 and animal certificate No.: 2013001818958, feeding condition: SPF grade.
# The test compounds were all formulated with 0.2% Tween 80+0.5% CMC solutions, and diluted to the corresponding concentration.
# (1) The nude mice were subcutaneously inoculated with lymphoma DOHH-2 cells. When the tumors grown to 100-200 mm^3, the animals were grouped randomly (D0).
# (§6) (2) Observation and recording: the tumor volume was measured 2 to 3 times per week, the mice were weighed, and the data were recorded.
# (§7) The endpoint is mainly dependent on whether the tumor growth is delayed or whether the mouse is cured. The tumor volume (in mm^3) was measured twice a week with caliper in two dimensions.
# (§8) The tumor volume (V) is calculated as: V=0.5×a×b^2, wherein a and b represent length and width, respectively; T/C (%)=(T−T0)/(C−C0)×100, wherein T and C represent the tumor volume at the end of the experiment; T0 and C0 represent the tumor volume at the beginning of the experiment. The T/C value (percentage) is indicative of anti-tumor efficacy.
# (§9) (4) Data analysis: the statistics were summarized, including mean and standard error of mean (SEM), statistical analysis of differences in tumor volume between groups, and analysis of data obtained by drug interaction that was carried out at the optimal treatment time point after the last administration (Day 21 after grouping). One-way variance analysis was performed to compare tumor volume and tumor weight between groups. When a […] F-statistic was obtained (p<0.001, treatment variance vs. error variance), the comparison between groups was performed using Games-Howell test. All data were analyzed using SPSS17.0, and P<0.05 was considered as statistically significant.
# [5] = system: human B cell lymphoma SU-DHL-4 cells subcutaneous transplantation tumor; experiment: Subcutaneous transplantation tumor in mice inoculated with SU-DHL-4 cells; type: in vivo, SCID.BG mice; conditions: SU-DHL-4 xenograft, PO; for Mean tumor volume D 0: baseline at first administration; for Mean tumor volume D 0 / % T/C D 14 / % tumor inhibition rate D 14 / Mean tumor volume D 14 / Complete regression (number of mice) / Partial regression (number of mice): 50 mg/kg each, BID, D 0-13; for Complete regression (number of mice) / Partial regression (number of mice): 8 mice per group; for tumor completely regressed, fraction of mice / tumor partially regressed, fraction of mice: 50 mg/kg; for tumor partially regressed, fraction of mice: text says QD×14
# Excerpt: Test animals: SCID.BG mice, 5-6 weeks old, female, purchased from Shanghai Lingchang Biotechnology Co., Ltd., with laboratory animals use license No.: SCXK (Shanghai) 2013-0018 and animal certificate No.: 2013001820833, feeding condition: SPF grade.
# The test compounds were all formulated with 0.2% Tween 80+0.5% CMC solution, and diluted to the corresponding concentration.
# (1) The mice were subcutaneously inoculated with SU-DHL-4 cells (B cell lymphoma SU-DHL-4 cells were purchased from ATCC). When the tumors grown to 100-150 mm^3, the animals were grouped according to the tumor volume (D0).
# as §6, §7
# as §8, with “efficacy. Tumor growth inhibition rate (TGI) (%)=100−T/C (%);” for “efficacy.”
# When the tumor regressed, the tumor growth inhibition rate (TGI) (%)=100−(T−T0)/T0×100
# If the tumor volume is smaller than the initial volume, i.e. T<T0 or C<C0, it is defined as partial regression (PR); if the tumor completely disappears, it is defined as complete regression (CR).
# as §9, with “14” for “21”, “single-tailed Mann-Whitney statistical analysis” for “the comparison between groups”, “to compare tumor volumes of the two groups,” for “using Games-Howell test. All data were analyzed using SPSS17.0,”
IC50 [1],IC50 [2],IC50 [3],SMILES,Mean tumor volume D 0 [4],% T/C D 21 [4],% tumor inhibition rate D 21 [4],Mean tumor volume D 21 [4],Mean tumor volume D 0 [5],% T/C D 14 [5],% tumor inhibition rate D 14 [5],Mean tumor volume D 14 [5],Complete regression (number of mice) [5],Partial regression (number of mice) [5],"tumor completely regressed, fraction of mice [5]","tumor partially regressed, fraction of mice [5]"
325 nM,1060 nM,711 nM,CC#CC(=O)N1CC[C@@H](n2cc(-c3ccc(Oc4c(F)cccc4F)cc3)c3c(N)n[nH]c(=O)c32)C1 [Compound A],111.1 mm^3,51%,49%,742.0 mm^3,122.4 mm^3,24%,76%,276.9 mm^3,1,1,1/8,1/8
5920 nM,2170 nM,4660 nM,"CCc1c(N(CC)C2CCOCC2)cc2oc(CN3CCCCC3)cc2c1C(=O)NCc1c(C)cc(C)[nH]c1=O [Compound B, N-((4,6-dimethyl-2-oxo-1,2-dihydropyridin-3-yl)methyl)-5-ethyl-6-(ethyl(tetrahydro-2H-pyran-4-yl)amino)-2-(piperidin-1-ylmethyl)benzofuran-4-carboxamide]",107.7 mm^3,65%,35%,914.1 mm^3,126.6 mm^3,40%,60%,384.7 mm^3,1,2,1/8,2/8

# — patent US11065239B2, “Use of EZH2 inhibitor combined with BTK inhibitor in preparing drug for treating tumor” (Jiangsu Hengrui Medicine Co., Ltd., priority 2017, dated 2021)
